Experimental data published in ChEMBL document CHEMBL1201862, “PubChem BioAssay data set” (2004).
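Values below derive from 48-hour exposures of cells grown in 96-well plates, with endpoints linearly interpolated between the two concentrations bracketing the appropriate inhibition level. At the GI50, growth is halved.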 Active and inactive are the calls of the source. No stated cut-off is given here; in the data, active = GI50 up to about 1.1 µM and inactive = higher.

Legend:
Assay in all cases: DTP human tumour cell line panel, 48 h
[1] = system: ACHN
[2] = system: HCT-15
[3] = system: U-251
[4] = system: TK-10
[5] = system: CCRF-CEM
[6] = system: UO-31
[7] = system: OVCAR-4
[8] = system: SF-539
[9] = system: K562
[10] = system: NCI-H460
[11] = system: A498
[12] = system: SW-620
[13] = system: OVCAR-3
[14] = system: HOP-62
[15] = system: A549
[16] = system: LOX IMVI
[17] = system: MOLT-4
[18] = system: COLO 205
[19] = system: SN12C
[20] = system: NCI-H522

| SMILES | GI50 [1] | GI50 [2] [µM] | GI50 [3] | GI50 [4] | GI50 [5] | GI50 [6] | GI50 [7] | GI50 [8] | GI50 [9] | GI50 [10] | GI50 [11] | GI50 [12] | GI50 [13] | GI50 [14] | GI50 [15] | GI50 [16] | GI50 [17] | GI50 [18] | GI50 [19] | GI50 [20] |
| --- | --- | --- | --- | --- | --- | --- | --- | --- | --- | --- | --- | --- | --- | --- | --- | --- | --- | --- | --- | --- |
| N=C(N)SCCc1ccncc1 | > 100 µM (inactive) | > 100 | > 100 µM (inactive) | > 100 µM (inactive) | 65.8 µM (inactive) | > 100 µM (inactive) | > 100 µM (inactive) | > 100 µM (inactive) | > 100 µM (inactive) | > 100 µM (inactive) | > 100 µM (inactive) | > 100 µM (inactive) | > 100 µM (inactive) | > 100 µM (inactive) | > 100 µM (inactive) | > 100 µM (inactive) | > 100 µM (inactive) | > 100 µM (inactive) | > 100 µM (inactive) |  |
| COc1cc2c(cc1OC)C(=O)/C(=C/c1ccc(N(C)C)cc1)CC2 | > 10 µM (inactive) | > 10 | > 10 µM (inactive) | > 10 µM (inactive) | 9.77 µM (inactive) | > 10 µM (inactive) | > 10 µM (inactive) | > 10 µM (inactive) | > 10 µM (inactive) | > 10 µM (inactive) |  | > 10 µM (inactive) | > 10 µM (inactive) | > 10 µM (inactive) | > 10 µM (inactive) | > 10 µM (inactive) | > 10 µM (inactive) | > 10 µM (inactive) | > 10 µM (inactive) |  |
| CC(=O)NC1CC2Oc3ccc(C)cc3C(C)(O2)C1O (stereo not given) | > 100 µM (inactive) | > 100 | > 100 µM (inactive) | > 100 µM (inactive) | > 100 µM (inactive) | > 100 µM (inactive) |  | > 100 µM (inactive) | > 100 µM (inactive) | > 100 µM (inactive) |  | > 100 µM (inactive) | > 100 µM (inactive) | > 100 µM (inactive) | > 100 µM (inactive) | > 100 µM (inactive) | > 100 µM (inactive) | > 100 µM (inactive) | > 100 µM (inactive) | > 100 µM (inactive) |
| COc1ccc2c(c1)C(=O)CC(C(N)=O)C2 (stereo not given) | > 100 µM (inactive) | > 100 | > 100 µM (inactive) | > 100 µM (inactive) | > 100 µM (inactive) | > 100 µM (inactive) | > 100 µM (inactive) |  | > 100 µM (inactive) | > 100 µM (inactive) |  | > 100 µM (inactive) | > 100 µM (inactive) | > 100 µM (inactive) | > 100 µM (inactive) | > 100 µM (inactive) | > 100 µM (inactive) | > 100 µM (inactive) | > 100 µM (inactive) | > 100 µM (inactive) |
| O=C(NCCCOC(=O)CCCCCCCCC(=O)OCCCNC(=O)NC(=O)c1c[nH]c(=O)[nH]c1=O)NC(=O)c1c[nH]c(=O)[nH]c1=O | > 100 µM (inactive) | > 100 | > 100 µM (inactive) | > 100 µM (inactive) | > 100 µM (inactive) |  | > 100 µM (inactive) | > 100 µM (inactive) | > 100 µM (inactive) | > 100 µM (inactive) | > 100 µM (inactive) | > 100 µM (inactive) | > 100 µM (inactive) | > 100 µM (inactive) | > 100 µM (inactive) | > 100 µM (inactive) | > 100 µM (inactive) | > 100 µM (inactive) | > 100 µM (inactive) |  |
| O=C(c1ccc2ccccc2c1O)N1CCCCC1 | > 100 µM (inactive) | > 100 | > 100 µM (inactive) | > 100 µM (inactive) | > 100 µM (inactive) | > 100 µM (inactive) | > 100 µM (inactive) | > 100 µM (inactive) | 28.4 µM (inactive) | 80.7 µM (inactive) | > 100 µM (inactive) | > 100 µM (inactive) |  | > 100 µM (inactive) |  | 90.4 µM (inactive) | 23.2 µM (inactive) | > 100 µM (inactive) |  |  |
| CCN1CCC(O)(c2ccc(Oc3ccc(C)cc3)cc2)C(C(=O)c2ccc(Oc3ccc(C)cc3)cc2)C1 (stereo not given) | 13.2 µM (inactive) | 4.01 | 11.6 µM (inactive) | 8.61 µM (inactive) | 5.13 µM (inactive) | 3.77 µM (inactive) | 1.94 µM (inactive) |  | 2.95 µM (inactive) | 3.28 µM (inactive) | 0.426 µM (active) | 12.9 µM (inactive) | 16 µM (inactive) | 15.2 µM (inactive) | 12.8 µM (inactive) | 3.69 µM (inactive) | 10.3 µM (inactive) | 12.1 µM (inactive) | 14.8 µM (inactive) |  |
| FC(F)(F)C1(Cl)C(Cl)(c2ccccc2)C1(Cl)c1ccccc1 (stereo not given) | 16.1 µM (inactive) | 13.7 | 14.7 µM (inactive) | 18.6 µM (inactive) | 14.9 µM (inactive) | 14.8 µM (inactive) | 14.2 µM (inactive) | 16.1 µM (inactive) | 33.7 µM (inactive) | 15.8 µM (inactive) |  | 15.7 µM (inactive) | 14.9 µM (inactive) | 16.3 µM (inactive) | 14.7 µM (inactive) | 13.3 µM (inactive) | 10.3 µM (inactive) | 19.2 µM (inactive) | 15.2 µM (inactive) |  |
| C/C(Cl)=N\OC(=O)Nc1ccccc1C(F)(F)F | 18.1 µM (inactive) | > 100 | > 100 µM (inactive) | 15.4 µM (inactive) | 21.1 µM (inactive) | 64.9 µM (inactive) | 13.8 µM (inactive) | > 100 µM (inactive) | 19 µM (inactive) | > 100 µM (inactive) | > 100 µM (inactive) | 17.9 µM (inactive) | 15.8 µM (inactive) |  | > 100 µM (inactive) | 14.9 µM (inactive) | 18.5 µM (inactive) | 21.6 µM (inactive) | > 100 µM (inactive) |  |
| CC(=O)O/N=C/c1c2ccccc2cc2ccccc12 | 23.8 µM (inactive) | 56.1 | 45.6 µM (inactive) | 83 µM (inactive) | > 100 µM (inactive) | 36.2 µM (inactive) |  | 51.1 µM (inactive) | 85.7 µM (inactive) | 51.8 µM (inactive) | 24.9 µM (inactive) | 50.8 µM (inactive) | > 100 µM (inactive) | 30 µM (inactive) | 47.9 µM (inactive) | > 100 µM (inactive) | > 100 µM (inactive) | > 100 µM (inactive) | 65.3 µM (inactive) |  |
| CCOC(=O)c1csc(NC(=O)C(C)N2CCCC2)n1 (stereo not given) | > 100 µM (inactive) | > 100 | > 100 µM (inactive) | > 100 µM (inactive) | > 100 µM (inactive) | > 100 µM (inactive) | > 100 µM (inactive) | > 100 µM (inactive) | > 100 µM (inactive) | > 100 µM (inactive) | > 100 µM (inactive) | > 100 µM (inactive) | > 100 µM (inactive) | > 100 µM (inactive) | > 100 µM (inactive) | > 100 µM (inactive) |  | > 100 µM (inactive) |  |  |
| CCOC(=O)C(=C=C=C(c1ccccc1)c1ccccc1)C(=O)OCC | 21.4 µM (inactive) | 19.6 | 17.3 µM (inactive) | 16 µM (inactive) | 3.52 µM (inactive) | 18.6 µM (inactive) | 18.3 µM (inactive) | 18.4 µM (inactive) | 11.3 µM (inactive) | 22.8 µM (inactive) | 48.4 µM (inactive) | 21.5 µM (inactive) | 15.5 µM (inactive) | 18.9 µM (inactive) | 25 µM (inactive) | 17.1 µM (inactive) | 9.08 µM (inactive) | 16.7 µM (inactive) | 20.7 µM (inactive) |  |
| CSc1nc(NCc2ccccc2)c2cnn(COCCO)c2n1 | 31.9 µM (inactive) |  | 44.5 µM (inactive) | 61.9 µM (inactive) | 51.6 µM (inactive) | 35.9 µM (inactive) | 29.4 µM (inactive) | > 100 µM (inactive) | 40.1 µM (inactive) | 39.3 µM (inactive) |  | > 100 µM (inactive) | 57.8 µM (inactive) | > 100 µM (inactive) | 43.9 µM (inactive) | 38.6 µM (inactive) | 26.3 µM (inactive) | 29.9 µM (inactive) | 75 µM (inactive) | 28.6 µM (inactive) |
| Cc1nn(C(=O)c2ccccc2O)c2c1C(c1ccccc1O)SC(=N)N2 (stereo not given) | 3.44 µM (inactive) | 4.42 | 4.39 µM (inactive) | 1.69 µM (inactive) | 3.1 µM (inactive) |  | 2.53 µM (inactive) | 0.421 µM (active) | 3.24 µM (inactive) | 4.36 µM (inactive) |  | 6.11 µM (inactive) | 2.54 µM (inactive) | 0.869 µM (active) | 8.04 µM (inactive) | 6.1 µM (inactive) | 2.67 µM (inactive) | > 10 µM (inactive) | 4.82 µM (inactive) | 3.47 µM (inactive) |
| CC1NCCc2c1[nH]c1cc(O)ccc21 (stereo not given) | > 100 µM (inactive) | > 100 |  | > 100 µM (inactive) | > 100 µM (inactive) | > 100 µM (inactive) | > 100 µM (inactive) | > 100 µM (inactive) | > 100 µM (inactive) | > 100 µM (inactive) | > 100 µM (inactive) | > 100 µM (inactive) | > 100 µM (inactive) | > 100 µM (inactive) | > 100 µM (inactive) | > 100 µM (inactive) | > 100 µM (inactive) | > 100 µM (inactive) | > 100 µM (inactive) |  |
| Cc1nc(C)c(C(=O)NNC(=O)C[N+](C)(C)C)cc1C(=O)NNC(=O)C[N+](C)(C)C | > 100 µM (inactive) | > 100 | > 100 µM (inactive) | > 100 µM (inactive) |  | > 100 µM (inactive) | > 100 µM (inactive) | > 100 µM (inactive) |  | > 100 µM (inactive) | > 100 µM (inactive) | > 100 µM (inactive) | > 100 µM (inactive) | > 100 µM (inactive) | > 100 µM (inactive) | > 100 µM (inactive) |  | > 100 µM (inactive) | > 100 µM (inactive) |  |
